Test results reported in patent US20140263071A1, “METHOD FOR COLLECTING METALS” (CHEMEC OY AB, priority 2011, published 2014).
Marks after values point to notes of the source that are not given here.

Assays:
[1] = Collection capacity (Example 10); settings: 100 ppm starting concentration
Description: (§1) A water solution (110 ml) containing known amount of single cationic element or elements, typically 0.5-200 ppm, was prepared from Merch Titrisol® standard solution. After adjusting pH by using acid (e.g. HCl or HNO3) or base (e.g. NaOH) to desired initial value, sample A (10 ml) was taken followed by adding 100 mg of selected solid complexation agent. The mixture was stirred at room temperature for 24 h and sample B (10 ml) was taken. Samples A and B were filtrated separately trough 0.2 μm syringe filter and the concentration of the studied element or elements in both solution was determined by using atomic absorption spectrophotometer. The expulsion percent was determined from the concentration differences between the sample solutions A and B.
Capacity of 1a to collect selected metals were determined following the general procedure described above by using 100 ppm starting metal concentration in each experiment and 1a (100 mg) at selected pH. Amounts of removed metals from the mixture were determined by using AAS. Results are collected in table 5 and are given in mg of metal bound to 1 g of 1a.

[2] = Effect of complexation agent amount on expulsion percent (Example 11); settings: Ca^2+ 2 ppm, pH 2.9
Description: as §1
Effect of amount of complexation agent 1a to expulsion percent was tested with 2.0 ppm calcium (Ca^2+) solution. A solution (100 ml) containing 2.0 ppm of calcium was stirred for 24 h with desired amount of complexation agent 1a (25 to 301 mg) at pH 2.9. Expulsions percent were determined for each solution using the general procedure and the results are collected in Table 6.

[3] = Removal of Cr^3+ from acidic solution, TS 4 diluted 1:100 (Example 19); settings: TS 4 diluted 1:100, pH 3.67, 1.0 g agent in 50 ml, 24 h
Description: A test solution containing 24000 mg/l of Na^+; 50-2000 mg/l of Ca^2+, Cr^3+, K^+ and Mg^2+; and trace amount of Al^3+, Fe^2/3+, Mn^2+, Ni^2+, Sr^2+, V^4+, and Zn^2+ cations were prepared.
TS 4 was diluted to 1:100 with water, pH (3.67) of the solution was determined and sample A was taken. A part (50 ml) of the diluted solution was treated with 1a, 6d or 7a (1.0 g) for 24 h with stirring at room temperature. After filtration trough 0.2 μm syringe filter, the expulsion per for Cr(III) was determined compared to original solution A. The results of expulsion per cents of Cr^3+ and some other elements are given in Table 13.

[4] = Simultaneous collection of Al, Ga and V from TS 5 at pH 0.5 (Example 23); settings: spiked TS 5, pH 0.5, 1a 10 g
Description: A test solution containing 1-15 mg/l of Al^3+, Fe^2/3+, Mg^2+, Mn^2+, Ni^2+ and Zn^2+; 0.1-0.9 mg/l of Ca^2+ and Na^+; and trace amount of other Cr^3+, Co^2+, Cu^2+, Eu^3+, La^3+, Nd^3+, Y^3+, UO2^2+ and Nb^5+ cations were prepared.
TS 5 (100 ml) was spiked with known amounts of Al^3+, Ga^3+ and V^4+ Merch Titrisol® standard solutions. After pH of the mixture was adjusted to 0.5 by HNO3 sample A was taken followed by adding 1a (10 g). The mixture was stirred at room temperature for 24 h and sample B was taken. Samples A and B were filtrated separately trough 0.2 μm syringe filter and the concentrations of the studied elements in both solution were determined by using ICP-AES method. The expulsion percent for each element were determined from the concentration differences between the sample A and B. The experimental results are given in Table 17.

[5] = Collection of Sc^3+ from silicate soil (Example 25); settings: digested spiked silicate soil solution (20 ml); 1a 100 mg; 24 h
Description: Silicate soil (1000 g) was spiked with […] (767 mg). A sample (200 mg) was weighted to Teflon vial followed by adding concentrated HCl (9 ml) and HNO3 (3 ml) solutions. The mixture was heated under microwave for 50 min followed by adding HF (3 ml) and microvawe heating was continued until solids were dissolved totally. The resulting solution was treated with 4% H3BO3 (10 ml) with heating and sample A (5 ml) was taken. The rest of the solution (20 ml) was treated with 1a (100 mg) at room temperature for 24 h. After filtration trough 0.2 μm syringe filter Sc^3+ concentration before and after treated was determined by using AAS method to give 87% recovery of Sc^3+.

[6] = Recycling and regeneration of solid bisphosphonate material (Example 27); settings: 1a 700 mg
Description: Compound 1a (700 mg) was weighed on sintered disc (porosity G-4) and aqueous CuCl2x2 H2O (20 ml) solution containing ca. 47 700 ppm of copper was passed slowly through the powder under vacuum. […] After the sintered disc was dry, aqueous HCl (25 ml, 2M) was passed slowly through the sintered disc. During this regeneration process solid bisphoshonate material on sintered disc turned from blue to white and filtered HCl solution was pale blue. The same procedure using the original 1a powder on sintered disc and a fresh CuCl2x2 H2O (20 ml) solution was repeated 20 times. The copper concentrations measured by AAS of the filtered HCl solution was 2294 ppm, 859 ppm and 713 ppm after first, 10th and 20th regeneration cycle, respectively. The amount of 1a after the last regeneration step was 630 mg (90% of the original amount).

NCCCCCCCCCCC(O)(P(=O)(O)O)P(=O)(O)O [Compound 1a, 11-Amino-1-hydroxyundecane-1,1-diyldiphosphonic acid]
Capacity ([1]; Ag^+, pH 2.5): 94.6 mg/g
Capacity ([1]; Au^3+, pH 4.0): 19.0 mg/g
Capacity ([1]; Ca^2+, pH 4.0): 50.9 mg/g
Capacity ([1]; Cd^2+, pH 4.0): 74.1 mg/g
Capacity ([1]; Co^2+, pH 4.5): 85.5 mg/g
Capacity ([1]; Cr^3+, pH 3.5): 9.9 mg/g
Capacity ([1]; Cu^2+, pH 4.0): 61.6 mg/g
Capacity ([1]; Fe^2+, pH 3.0): 82.7 mg/g
Capacity ([1]; Fe^3+, pH 3.0): 15.2 mg/g
Capacity ([1]; Mo^6+, pH 9.1): 97.2 mg/g
Capacity ([1]; Ni^2+, pH 4.0): 13.1 mg/g
Capacity ([1]; Pb^2+, pH 4.0): 85.6 mg/g
Capacity [mg/g] ([1]; Sc^3+, pH 2.0): 16.9^1) mg/g
Capacity ([1]; Zn^2+, pH 4.0): 70.9 mg/g
Expulsion [%] ([2]; 25 mg of 1a in 100 ml): 41.3%
Expulsion [%] ([2]; 52 mg of 1a in 100 ml): 45.9%
Expulsion [%] ([2]; 75 mg of 1a in 100 ml): 53.6%
Expulsion [%] ([2]; 101 mg of 1a in 100 ml): 59.4%
Expulsion [%] ([2]; 125 mg of 1a in 100 ml): 63.6%
Expulsion [%] ([2]; 150 mg of 1a in 100 ml): 67.1%
Expulsion [%] ([2]; 175 mg of 1a in 100 ml): 70.2%
Expulsion [%] ([2]; 200 mg of 1a in 100 ml): 71.0%
Expulsion [%] ([2]; 225 mg of 1a in 100 ml): 76.6%
Expulsion [%] ([2]; 250 mg of 1a in 100 ml): 79.6%
Expulsion [%] ([2]; 275 mg of 1a in 100 ml): 85.6%
Expulsion [%] ([2]; 301 mg of 1a in 100 ml): 83.5%
Expulsion [%] Ca^2+ ([3]; Ca^2+): 67%
Expulsion [%] Cr^3+ ([3]; Cr^3+): 91%
Expulsion [%] K^+ ([3]; K^+): 36%
Expulsion [%] Mg^2+ ([3]; Mg^2+): 74%
Expulsion [%] Na^+ ([3]; Na^+): 14%
Expulsion [%] Zn^2+ ([3]; Zn^2+): >39^1) %
Expulsion [%] ([4]; Al^3+): 99.8^1) %
Expulsion [%] ([4]; Cr^3+): 0%
Expulsion [%] ([4]; Fe^2/3+): ≥ 97.0^4) %
Expulsion [%] ([4]; Ga^3+): 93.2^2) %
Expulsion [%] ([4]; Mg^2+): 0%
Expulsion [%] ([4]; Mn^2+): 9%
Expulsion [%] ([4]; Ni^2+): 0%
Expulsion [%] ([4]; V^4+): 99.7^3) %
Expulsion [%] ([4]; Zn^2+): 23%
recovery of Sc^3+ [5]: 87%
copper concentration of the filtered HCl solution ([6]; after 10th regeneration cycle): 859 ppm
copper concentration of the filtered HCl solution ([6]; after 20th regeneration cycle): 713 ppm
copper concentration of the filtered HCl solution ([6]; after first regeneration cycle): 2294 ppm
